Values quoted from earlier work as cited in patent publication US5952465A, “Polypeptides that include conformation-constraining groups which flank a protein-protein interaction site” (Virginia Commonwealth University, priority 1998, dated 1999).
Where a SMILES comes first, the peptide text is derived from it.

System: receptors of sweet tasting papillae
Conditions: comparison substance

- Sweetness relative to sugar: 160 times sweeter than sugar
Compound: COC(=O)[C@H](Cc1ccccc1)NC(=O)[C@@H](N)CC(=O)O [aspartame] (H-Asp-Phe-OMe)
